Patent US12459899B2, “Isoquinolinone derivatives, method for preparing the same, and pharmaceutical composition for preventing or treating poly(ADP-ribose) polymerase-1-related diseases, comprising the same as active ingredient” (DIGMBIO. INC., priority 2019, dated 2025)

These molecules were tested against PARP-1 (poly[ADP-ribose] polymerase 1) enzyme (Homo sapiens (Human), UniProt P09874) (assay: PARP-1 (poly[ADP-ribose] polymerase 1) enzyme inhibitory ability, Trevigen assay kit). Conditions: 1 nM compound; read-out: PAR P-1 Inhibitory ability at 1 nM.
Sequence of PARP-1 (poly[ADP-ribose] polymerase 1) enzyme (P09874 whole entry): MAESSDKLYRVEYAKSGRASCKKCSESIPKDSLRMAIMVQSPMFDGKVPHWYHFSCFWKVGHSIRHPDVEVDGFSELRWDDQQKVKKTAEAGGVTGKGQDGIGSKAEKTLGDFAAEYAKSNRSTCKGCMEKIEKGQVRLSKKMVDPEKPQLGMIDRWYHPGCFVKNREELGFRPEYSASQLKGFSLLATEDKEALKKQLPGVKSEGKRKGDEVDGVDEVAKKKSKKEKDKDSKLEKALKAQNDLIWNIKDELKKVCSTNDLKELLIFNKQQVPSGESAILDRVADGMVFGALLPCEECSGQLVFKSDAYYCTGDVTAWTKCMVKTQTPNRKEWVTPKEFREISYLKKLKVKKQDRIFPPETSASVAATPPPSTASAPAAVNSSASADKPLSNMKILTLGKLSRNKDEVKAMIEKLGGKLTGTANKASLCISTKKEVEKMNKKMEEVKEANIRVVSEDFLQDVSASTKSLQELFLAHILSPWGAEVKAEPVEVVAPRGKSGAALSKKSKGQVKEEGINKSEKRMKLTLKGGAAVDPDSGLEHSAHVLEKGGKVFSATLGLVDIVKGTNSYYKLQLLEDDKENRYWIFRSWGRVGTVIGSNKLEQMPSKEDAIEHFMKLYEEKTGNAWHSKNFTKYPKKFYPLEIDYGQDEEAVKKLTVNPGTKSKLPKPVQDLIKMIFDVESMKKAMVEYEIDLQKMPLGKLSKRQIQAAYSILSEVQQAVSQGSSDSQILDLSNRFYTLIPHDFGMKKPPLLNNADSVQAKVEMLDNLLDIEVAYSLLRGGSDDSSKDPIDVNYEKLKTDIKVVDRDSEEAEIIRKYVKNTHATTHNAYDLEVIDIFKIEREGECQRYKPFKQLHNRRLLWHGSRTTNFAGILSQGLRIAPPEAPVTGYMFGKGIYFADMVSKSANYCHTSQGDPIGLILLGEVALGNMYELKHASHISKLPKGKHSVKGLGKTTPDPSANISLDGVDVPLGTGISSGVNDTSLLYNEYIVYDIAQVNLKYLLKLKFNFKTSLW
Assay type: biochemical
Method in brief: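 Human PARP-1 activity was measured with a Trevigen assay kit in histone-coated 96-well plates rehydrated with 50 μL of 1×PARP buffer for 30 minutes. Enzyme (0.5 unit/well) and compound were preincubated 10 minutes at room temperature, then 25 μL of 1×PARP cocktail with biotinylated NAD and activated DNA was added for 1 hour.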
`N#Cc1ccc(C2=CCN(CCCc3cc4cccc(F)c4c(=O)[nH]3)CC2)cc1` [Example 41, 4-(1-(3-(8-fluoro-1-oxo-1,2-dihydroisoquinolin-3-yl)propyl)-1,2,3,6-tetrahydropyridin-4-yl)benzonitrile] showed an inhibition at 0.001 µM of 50 to 80%.
`N#Cc1ccc(F)cc1N1CCN(C(=O)CCc2cc3cccc(F)c3c(=O)[nH]2)CC1` [Example 81, 4-fluoro-2-(4-(3-(8-fluoro-1-oxo-1,2-dihydroisoquinolin-3-yl)propanoyl)piperazin-1-yl)benzonitrile] gave an inhibition at 0.001 µM of under 50%.
`Cc1ccc(F)c2c(=O)[nH]c(CCCN3CCN(c4nccs4)CC3)cc12` [Example 29, 8-fluoro-5-methyl-3-(3-(4-(thiazole-2-yl)piperazin-1-yl)propyl)isoquinolin-1(2H)-one] gave an inhibition at 0.001 µM of under 50%.
`Cc1cc(F)cc2c(=O)[nH]c(CCC(=O)N3CCN(c4ccc(C#N)cc4F)CC3)cc12` [Example 154, 3-fluoro-4-(4-(3-(7-fluoro-5-methyl-1-oxo-1,2-dihydroisoquinolin-3-yl)propanoyl)piperazin-1-yl)benzonitrile] showed an inhibition at 0.001 µM of under 50%.
`Cc1cc(F)cc2c(=O)[nH]c(CCCN3CCN(c4ccc(F)cc4)CC3)cc12` [Example 40, 7-fluoro-3-(3-(4-(4-fluorophenyl)piperazin-1-yl)propyl)-5-methylisoquinolin-1(2H)-one] gave an inhibition at 0.001 µM of 50 to 80%.
`Cc1ccc(F)c2c(=O)[nH]c(CCC(=O)N3CCN(c4cc(F)ccc4C#N)CC3)cc12` [Example 134, 4-fluoro-2-(4-(3-(8-fluoro-5-methyl-1-oxo-1,2-dihydroisoquinolin-3-yl)propanoyl)piperazin-1-yl)benzonitrile] showed an inhibition at 0.001 µM of under 50%.
Work on `N#Cc1cc(F)cc(N2CCN(C(=O)CCc3cc4ccc(F)cc4c(=O)[nH]3)CC2)c1` [Example 119, 3-fluoro-5-(4-(3-(7-fluoro-1-oxo-1,2-dihydroisoquinolin-3-yl)propanoyl)piperazin-1-yl)benzonitrile] yielded an inhibition at 0.001 µM of under 50%.
`COC(=O)c1ccc(NC2CCN(CCCc3cc4ncccc4c(=O)[nH]3)CC2)cc1` [Example 252, methyl 4-((1-(3-(5-oxo-5,6-dihydro-1,6-naphthyridin-7-yl)propyl)piperidin-4-yl)amino)benzoate] showed an inhibition at 0.001 µM of under 50%.
For `N#Cc1cc(F)cc(C2=CCN(C(=O)CCc3cc4cccc(F)c4c(=O)[nH]3)CC2)c1` [Example 84, 3-fluoro-5-(1-(3-(8-fluoro-1-oxo-1,2-dihydroisoquinolin-3-yl)propanoyl)-1,2,3,6-tetrahydropyridin-4-yl)benzonitrile], the inhibition at 0.001 µM was under 50%.
`N#Cc1ccc(N2CCN(CCCc3cc4cccc(F)c4c(=O)[nH]3)CC2)nc1` [Example 3, 6-(4-(3-(8-fluoro-1-oxo-1,2-dihydroisoquinolin-3-yl)propyl)piperazin-1-yl)nicotinonitrile] showed an inhibition at 0.001 µM of under 50%.
`N#Cc1ccc(OC2CCN(C(=O)CCc3cc4cccc(F)c4c(=O)[nH]3)CC2)cc1` [Example 255, 4-((1-(3-(8-fluoro-1-oxo-1,2-dihydroisoquinolin-3-yl)propanoyl)piperidin-4-yl)oxy)benzonitrile] showed an inhibition at 0.001 µM of under 50%.
Molecule `O=C(CCc1cc2ccc(F)cc2c(=O)[nH]1)N1CC=C(c2ccc(F)nc2)CC1` [Example 102] has an inhibition at 0.001 µM of under 50%.
In the case of `N#Cc1ccc(N2CCN(CCCc3cc4ccc(F)cc4c(=O)[nH]3)CC2)cc1` [Example 8, 4-(4-(3-(7-fluoro-1-oxo-1,2-dihydroisoquinolin-3-yl)propyl)piperazin-1-yl)benzonitrile], the inhibition at 0.001 µM is reported as 50 to 80%.
`N#Cc1cc(F)ccc1N1CCN(C(=O)CCc2cc3cccc(F)c3c(=O)[nH]2)CC1` [Example 76, 5-fluoro-2-(4-(3-(8-fluoro-1-oxo-1,2-dihydroisoquinolin-3-yl)propanoyl)piperazin-1-yl)benzonitrile] gave an inhibition at 0.001 µM of under 50%.
`N#Cc1ccc(C2=CCN(C(=O)CCc3cc4ccc(F)cc4c(=O)[nH]3)CC2)cc1` [Example 95, 4-(1-(3-(7-fluoro-1-oxo-1,2-dihydroisoquinolin-3-yl)propanoyl)-1,2,3,6-tetrahydropyridin-4-yl)benzonitrile] gave an inhibition at 0.001 µM of under 50%.

Same assay, conditions: PARP-1 enzyme activity
`N#Cc1ccc(N2CCN(CCCc3cc4ccc(F)cc4c(=O)[nH]3)CC2)cc1` [Example 8, 4-(4-(3-(7-fluoro-1-oxo-1,2-dihydroisoquinolin-3-yl)propyl)piperazin-1-yl)benzonitrile] gave an IC50 of 0.72 nM.
